In article PMC4408887 (Nature chemistry, 2015):
Positions of bridges follow the written chain, without caps; N, C: chain ends. Non-standard residues stand in square brackets, D forms with d. Residues, ends and D or L forms follow the SMILES beside them. Triazole bridges read from a SMILES are 1,4-linked. Chains are numbered I, II in the order given. No end group written: not given here. *: point of attachment. Biotin = O=C1N[C@H]2[C@H](CS[C@H]2CCCCC(=O)*)N1; Lys(N3) = [N-]=[N+]=NCCCC[C@H](N)C(=O)O; PEG5 = NCCOCCOCCOCCOCCOCCC(=O)O; Pra = C#CC[C@H](N)C(=O)O

What was measured:
[1] = target: WT 33-mer PH Domain epitope of Akt1 (Homo sapiens, UniProt P31749); assay: Fluorescence polarization binding to WT 33-mer epitope
[2] = target: label-modified yleaf peptide used in fluorescence polarization; assay: fluorescence polarisation
[3] = system: E17K versus WT PH Domain of Akt1 - PIP3 interaction; assay: PIP3 agarose inhibition, E17K relative to WT; assay type: biochemical; settings: triligand 0.1-1000 eq
[4] = system: Akt1^E17K relative to Akt2^E17K; assay: Point ELISA, Akt1 and Akt2 isoforms; assay type: binding; settings: 100 nM protein, triplicate
[5] = system: WT or E17K GST-Akt1; assay: Point ELISA in human serum; assay type: binding; settings: 150 nM protein, 0%, 1% and 2% human serum in TBS
[6] = target: full length Akt1^E17K (UniProt P31749 1-480, E17K); assay: fluorescence polarisation
[7] = target: full length Akt1 (WT) (UniProt P31749 1-480); assay: fluorescence polarisation

CC(C)C[C@@H](NC(=O)[C@H](N)Cc1ccc(O)cc1)C(=O)N[C@H](CCC(=O)O)C(=O)N[C@H](C)C(=O)N[C@H](Cc1ccccc1)C(N)=O [yleaf] (H-[dY][dL][dE][dA][dF]-NH2)
Kd [1]: 2800 ± 840 nM

E17K mutant 6-His-tagged 33-mer PH Domain peptide fragment of Akt1 (from UniProt P31749 1-33)
Kd [2]: 328 nM

WT 6-His-tagged 33-mer PH Domain peptide fragment of Akt1 (from UniProt P31749 1-33)
Kd [2]: 2800 nM

CC[C@@H](C)[C@@H](NC(=O)CCOCCOCCOCCOCCOCCNC(=O)CCCC[C@@H]1SC[C@@H]2NC(=O)N[C@@H]21)C(=O)N[C@@H](C(=O)N[C@H](CC(=O)O)C(=O)N[C@H](C)C(=O)N[C@H](CCC(=O)O)C(=O)N[C@@H](Cc1cn(CCCC[C@H](NC(C)=O)C(=O)N[C@H](Cc2ccc(O)cc2)C(=O)N[C@H](CC(C)C)C(=O)N[C@H](CCC(=O)O)C(=O)N[C@H](C)C(=O)N[C@H](Cc2ccccc2)C(=O)N[C@@H](Cc2cn(CCCC[C@H](NC(C)=O)C(=O)N[C@H](Cc3ccc(O)cc3)C(=O)N[C@H](CCCCN)C(=O)N[C@H](CO)C(=O)N[C@H](Cc3ccc(O)cc3)C(N)=O)nn2)C(=O)O)nn1)C(=O)O)C(C)C [triligand] (I: Ac-[Lys(N3)][dY][dL][dE][dA][dF][Pra]-OH / II: {Biotin-PEG5}-[dI][dV][dD][dA][dE][Pra]-OH / III: Ac-[Lys(N3)][dY][dK][dS][dY]-NH2; triazole I:1-II:6, I:7-III:1; C-terminus assumed)
selective inhibition of E17K relative to WT [3]: significant selective inhibition of the E17K mutant relative to the WT | preference for Akt1^E17K relative to Akt2^E17K [4]: slight preference for Akt1^E17K relative to the Akt2^E17K | reduction in binding efficiency in human serum [5]: very little reduction in binding efficiency

B1: label-modified yleaf peptide used in fluorescence polarization (peptide)
peptide: [dY][dL][dE][dA][dF]
modifications: also: label-modified, label not given here
Kd [6]: 54 ± 7 nM | Kd [7]: > 1000 nM
